Some results are limits rather than exact numbers.

Chain of Human Factor D (P00746 26-253): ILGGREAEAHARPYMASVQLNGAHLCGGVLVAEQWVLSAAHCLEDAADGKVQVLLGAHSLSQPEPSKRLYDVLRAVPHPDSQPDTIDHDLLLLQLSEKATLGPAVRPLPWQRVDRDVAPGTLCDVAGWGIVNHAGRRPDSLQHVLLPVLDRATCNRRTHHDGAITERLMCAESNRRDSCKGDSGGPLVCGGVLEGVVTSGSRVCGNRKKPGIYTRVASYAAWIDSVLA

One experiment deals with Human Factor D (Homo sapiens (Human), UniProt P00746). Description: Human Factor D Assay. It counts as biochemical. Conditions: Human Factor D 80 nM, substrate Z-L-Lys-SBzl; read-out: IC50. The method, then:
Human Factor D (purified from human serum, Complement Technology, Inc.) at 80 nM final concentration was incubated with test compound at various concentrations for 5 minutes at room temperature in 50 mM Tris, 1M NaCl, pH 7.5. A synthetic substrate Z-L-Lys-SBzl and DTNB (Ellman's reagent) are added to final concentrations of 100 μM each. […] IC50 values are calculated by nonlinear regression of complement Factor D reaction rates as a function of test compound concentration.
For the compound `NC(=O)c1nn(CC(=O)N2C[C@H](F)C[C@H]2C(=O)Nc2cccc(-c3ccccc3Cl)c2F)c2ccc(-c3cn[nH]c3)cc12` [Compound 1], the IC50 was less than 1 µM.

For `NC(=O)c1nn(CC(=O)N2C[C@H](F)C[C@H]2C(=O)Nc2cccc(-c3ccccc3Cl)c2F)c2ccc(-c3cncnc3)cc12` [Compound 2], the 50% inhibitory concentration (IC50) is less than 1 µM.

In the case of `NC(=O)c1nn(CC(=O)N2C[C@H](F)C[C@H]2C(=O)Nc2cccc(Br)n2)c2ccc(-c3ccc(N4CCOCC4)cc3)cc12` [Compound 3, 1-(2-((2S,4R)-2-((6-Bromopyridin-2-yl)carbamoyl)-4-fluoropyrrolidin-1-yl)-2-oxoethyl)-5-(4-morphlinophenyl)-1H-indazole-3-carboxamide], the IC50 is less than 1 µM.

For `NC(=O)c1nn(CC(=O)N2[C@@H]3C[C@@H]3C[C@H]2C(=O)Nc2cccc(Br)n2)c2ccc(-c3cncnc3)cc12` [Compound 4], the half-maximal inhibitory concentration (IC50) was less than 1 µM.

In the case of `NC(=O)c1nn(CC(=O)N2C[C@H](F)C[C@H]2C(=O)Nc2cccc(Br)n2)c2ccc(-c3cncnc3)cc12` [Compound 5, 1-(2-((2S,4R)-2-(6-bromopyridin-2-ylcarbamoyl)-4-fluoropyrrolidin-1-yl)-2-oxoethyl)-5-(pyrimidin-5-yl)-1H-indazole-3-carboxamide], the IC50 was less than 1 µM.

As to `NC(=O)c1nn(CC(=O)N2[C@@H]3C[C@@H]3C[C@H]2C(=O)Nc2cccc(-c3ccccc3Cl)c2F)c2ccc(-c3cncnc3)cc12` [Compound 6, 1-(2-((1R,3S,5R)-3-((2′-Chloro-2-fluoro-[1,1′-biphenyl]-3-yl)carbamoyl)-azabicyclo[3.1.0]hexan-2-yl)-2-oxoethyl)-5-(pyrimidin-5-yl)-1H-indazole-3-carboxamide], the IC50 is less than 1 µM.

For the compound `NC(=O)c1nn(CC(=O)N2[C@@H]3C[C@@H]3C[C@H]2C(=O)Nc2cccc(-c3ccccc3Cl)c2F)c2ccc(-c3ncccn3)cc12` [Compound 7, 1-(2-((1R,3S,5R)-3-(2′-chloro-2-fluorobiphenyl-3-ylcarbamoyl)-2-azabicyclo[3.1.0]hexan-2-yl)-2-oxoethyl)-5-(pyrimidin-2-yl)-1H-indazole-3-carboxamide], the half-maximal inhibitory concentration (IC50) was less than 1 µM.

Consider `NC(=O)c1nn(CC(=O)N2[C@@H]3C[C@@H]3C[C@H]2C(=O)Nc2cccc(OC(F)(F)F)c2F)c2ccc(-c3cncnc3)cc12` [Compound 8, 1-(2-((1R,3S,5R)-3-(2-fluoro-3-(trifluoromethoxy)phenylcarbamoyl)-2-azabicyclo[3.1.0]hexan-2-yl)-2-oxoethyl)-5-(pyrimidin-5-yl)-1H-indazole-3-carboxamide], for which the IC50 is less than 1 µM.

Turning to `NC(=O)c1nn(CC(=O)N2C[C@H](F)C[C@H]2C(=O)Nc2cccc(OC(F)(F)F)c2F)c2ccc(-c3cncnc3)cc12` [Compound 9, 1-(2-((2S,4R)-4-fluoro-2-(2-fluoro-3-(trifluoromethoxy)phenylcarbamoyl)pyrrolidin-1-yl)-2-oxoethyl)-5-(pyrimidin-5-yl)-1H-indazole-3-carboxamide], the 50% inhibitory concentration (IC50) is less than 1 µM.

Consider `NC(=O)c1nn(CC(=O)N2C[C@H](F)C[C@H]2C(=O)Nc2cccc(-c3ccccc3Cl)c2F)c2ccc(-c3cnc(N4CCCC4)nc3)cc12` [Compound 10], for which the half-inhibitory concentration (IC50) was less than 1 µM.

Take `NC(=O)c1nn(CC(=O)N2[C@@H]3C[C@@H]3C[C@H]2C(=O)Nc2cccc(Br)n2)c2ccc(-c3cnc(N4CCCC4)nc3)cc12` [Compound 11]: the concentration for half-maximal inhibition (IC50) was less than 1 µM.

For `NC(=O)c1nn(CC(=O)N2C[C@H](F)C[C@H]2C(=O)Nc2cccc(-c3ccccc3Cl)c2F)c2ccc(-c3ccc(F)nc3)cc12` [Compound 12, 1-(2-((2S,4R)-2-((2′-Chloro-2-fluoro-[1,1′-biphenyl]-3-yl)carbamoyl)-4-fluoropyrrolidin-1-yl)-2-oxoethyl)-5-(6-fluoropyridin-3-yl)-1H-indazole-3-carboxamide], the half-maximal inhibitory concentration (IC50) was less than 1 µM.

With `NC(=O)c1nn(CC(=O)N2[C@@H]3C[C@@H]3C[C@H]2C(=O)Nc2cccc(-c3ccccc3Cl)c2F)c2ccc(-c3ccc(F)nc3)cc12` [Compound 13, 1-(2-((1R,3S,5R)-3-(2′-chloro-2-fluorobiphenyl-3-ylcarbamoyl)-2-azabicyclo[3.1.0]hexan-2-yl)-2-oxoethyl)-5-(6-fluoropyridin-3-yl)-1H-indazole-3-carboxamide], the 50% inhibitory concentration (IC50) was less than 1 µM.

With `CC(=O)c1cn(CC(=O)N2C[C@H](F)C[C@H]2C(=O)Nc2cccc(Br)n2)c2ccc(-c3cncnc3)cc12` [Compound 14, (2S,4R)-1-(2-(3-acetyl-5-(pyrimidin-5-yl)-1H-indol-1-yl)acetyl)-N-(6-bromopyridin-2-yl)-4-fluoropyrrolidine-2-carboxamide], the half-maximal inhibitory concentration (IC50) is less than 1 µM.

Consider `CC(=O)c1cn(CC(=O)N2[C@@H]3C[C@@H]3C[C@H]2C(=O)Nc2cccc(-c3ccccc3Cl)c2F)c2ccc(-c3cncnc3)cc12` [Compound 15, (1R,3S,5R)-2-(2-(3-acetyl-5-(pyrimidin-5-yl)-1H-indol-1-yl)acetyl)-N-(2′-chloro-2-fluorobiphenyl-3-yl)-2-azabicyclo[3.1.0] hexane-3-carboxamide], for which the half-inhibitory concentration (IC50) was less than 1 µM.

As to `CC(=O)c1cn(CC(=O)N2C[C@H](F)C[C@H]2C(=O)Nc2cccc(-c3ccccc3Cl)c2F)c2ccc(N3CCN(C(C)=O)CC3)cc12` [Compound 16, (2S,4R)-1-(2-(3-acetyl-5-(4-acetylpiperazin-1-yl)-1H-indol-1-yl)acetyl)-N-(2′-chloro-2-fluorobiphenyl-3-yl)-4-fluoropyrrolidine-2-carboxamide], the IC50 was less than 1 µM.

Turning to `CC(=O)c1cn(CC(=O)N2[C@@H]3C[C@@H]3C[C@H]2C(=O)Nc2cccc(Br)n2)c2ccc(-c3cncnc3)cc12` [Compound 17, (1R,3S,5R)-2-(2-(3-acetyl-5-(pyrimidin-5-yl)-1H-indol-1-yl)acetyl)-N-(6-bromopyridin-2-yl)2-azabicyclo[3.1.0] hexane-3-carboxamide], the IC50 was less than 1 µM.

Take `NC(=O)c1nn(CC(=O)N2C[C@H](F)C[C@H]2C(=O)NCc2cccc(Cl)c2F)c2cnc(-c3cncnc3)cc12` [Compound 18, 1-(2-((2S,4R)-2-(3-chloro-2-fluorobenzyl-carbamoyl)-4-fluoropyrrolidin-1-yl)-2-oxoethyl)-5-(pyrimidin-5-yl)-1H-pyrazolo[3,4-c]pyridine-3-carboxamide]: the concentration for half-maximal inhibition (IC50) was less than 1 µM.

`NC(=O)c1nn(CC(=O)N2C[C@H](F)C[C@H]2C(=O)Nc2cccc(-c3ccccc3Cl)c2F)c2cnc(-c3cncnc3)cc12` [Compound 19, 1-(2-((2S,4R)-2-((2′-Chloro-2-fluoro-[1,1′-biphenyl]-3-yl)carbamoyl)-4-fluoropyrrolidin-1-yl)-2-oxoethyl)-5-(pyrimidin-5-yl)-1H-pyrazolo[3,4-c]pyridine-3-carboxamide]: the IC50 was less than 1 µM.

For the compound `CC(=O)c1cn(CC(=O)N2C[C@H](F)C[C@H]2C(=O)Nc2cccc(-c3ccccc3Cl)c2F)c2ccc(-c3ccnnc3)cc12` [Compound 20, (2S,4R)-1-(2-(3-Acetyl-5-(pryridazin-4-yl)-1H-indol-1-yl)acetyl)-N-(2′-chloro-2-fluoro-[1,1′-biphenyl]-3-yl)-4-fluoropyrrolidine-2-carboxamide], the IC50 was less than 1 µM.

Turning to `COc1ncc(-c2ccc3c(c2)c(C(C)=O)cn3CC(=O)N2C[C@H](F)C[C@H]2C(=O)Nc2cccc(Br)n2)cn1` [Compound 21, (2S,4R)-1-(2-(3-acetyl-5-(2-methoxypyrimidin-5-yl)-1H-indol-1-yl)acetyl)-N-(6-bromopyridin-2-yl)-4-fluoropyrrolidine-2-carboxamide], the 50% inhibitory concentration (IC50) is less than 1 µM.

Regarding `CN1CC=C(c2ccc3c(c2)c(C(N)=O)nn3CC(=O)N2C[C@H](F)C[C@H]2C(=O)Nc2cccc(Br)n2)CC1` [Compound 22, 1-(2-((2S,4R)-2-(6-bromopyridin-2-ylcarbamoyl)-4-fluoropyrrolidin-1-yl)-2-oxoethyl)-5-(1-methyl-1,2,3,6-tetrahydropyridin-4-yl)-1H-indazole-3-carboxamide], the half-inhibitory concentration (IC50) is less than 1 µM.

Regarding `NC(=O)c1nn(CC(=O)N2C[C@H](F)C[C@H]2C(=O)Nc2cccc(Br)n2)c2ccc(-c3ccnnc3)cc12` [Compound 25, 1-(2-((2S,4R)-2-(6-bromopyridin-2-ylcarbamoyl)-4-fluoropyrrolidin-1-yl)-2-oxoethyl)-5-(pyridazin-4-yl)-1H-indazole-3-carboxamide], the 50% inhibitory concentration (IC50) is less than 1 µM.

Still in this experiment, the particulars now being: Human Factor D, Table 3; read-out: IC50.
As to `CC(=O)c1nn(CC(=O)N2C(C(=O)Nc3cccc(Br)n3)C[C@@]3(CN(C)C)C[C@@H]23)c2ccc(-c3cnc(C)nc3)cc12` (stereo in doubt) [Compound 577, (1R,3S,5R)-2-(2-(3-Acetyl-5-(2-methylpyrimidin-5-yl)-1H-indazol-1-yl)acetyl)-N-(6-bromopyridin-2-yl)-5-((dimethylamino)methyl)-2-azabicyclo[3.1.0]hexane-3-carboxamide], the IC50 is less than 1 µM.

With `CC(=O)c1nn(CC(=O)N2C(C(=O)Nc3cccc(Br)n3)C[C@]3(CN(C)C)C[C@H]23)c2ccc(-c3cnc(C)nc3)cc12` (stereo in doubt) [Compound 578, (1S,3S,5S)-2-(2-(3-acetyl-5-(2-methylpyrimidin-5-yl)-1H-indazol-1-yl)acetyl)-N-(6-bromopyridin-2-yl)-5-((dimethylamino)methyl)-2-azabicyclo[3.1.0]hexane-3-carboxamide], the half-inhibitory concentration (IC50) was less than 1 µM.

With `CC(=O)c1nn(CC(=O)N2C[C@@](F)(CF)CC2C(=O)Nc2nc(Br)ccc2C)c2ccc(-c3cnc(N)nc3)cc12` (stereo in doubt) [Compound 579, (2S,4R)-1-(2-(3-acetyl-5-(2-aminopyrimidin-5-yl)-1H-indazol-1-yl)acetyl)-N-(6-bromo-3-methylpyridin-2-yl)-4-fluoro-4-(fluoromethyl) pyrrolidine-2-carboxamide], the IC50 is less than 1 µM.

These data come from patent US10287301B2 (Achillion Pharmaceuticals, Inc., priority 2015, dated 2019).
